# In publication PMC12152147, “DDB1 engagement defines the selectivity of S656 analogs for cyclin K degradation over CDK inhibition” (EMBO Reports, 2025):
# Values joined by “and” are separate entries in the source; they are usually repeats but may differ in a detail not shown here. Equal values may be shown once. Read-outs that look alike come from different tables or passages of the source.
# Experiments:
# CDK1 = biological target: T1, CDK1 (Homo sapiens, UniProt P06493); test: CDK1 in vitro kinase activity, single concentration 1 μM; type: biochemical; conditions: single concentration 1 μM
# T1 construct: purchased BPS Bioscience 79597
# Description: (§1) Kinase activity was assessed using the kinase assay kits from BPS Bioscience for CDK1, CDK9 and CDK12 with Kinase Glo MAX in duplicates. Compounds were tested at a single concentration of 1 μM for CDK1 and CDK9 activity, and in a dilution ranging from 0.64 nM to 50 μM for CDK12 activity. Chemiluminescence was read using the Neo Synergy BioTek plate reader.
# [1] = test system: OCI-AML5 cells expressing shRNAs targeting CDK1, 2, 4, 7, 9, cyclin K; test: Dose response in OCI-AML5 expressing shRNAs targeting CDK1, 2, 4, 7, 9, cyclin K or control; type: cell-based, H. sapiens
# cyclin KeGFP = test: Cyclin KeGFP reporter system (eGFP/mCherry MFI by flow cytometry);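 as to % degradation cyclin K-eGFP: 10 μM compound for 3 h relative to DMSO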; type: cell-based, H. sapiens
# Procedure, shortened: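 Degradation read as eGFP-to-mCherry MFI ratio relative to DMSO controls, from flow cytometry of the selected G7 clone of OCI-AML5 cells transduced with the cyclin KeGFP reporter.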
# [2] = test system: OCI-AML5 cells expressing shRNA targeting CUL4A or CUL4B; test: Dose response in OCI-AML5 expressing shRNAs targeting CUL4A, CUL4B or control; type: cell-based, H. sapiens
# CDK9/CyclinT = biological target: T2, CDK9/CyclinT (Homo sapiens, UniProt P50750); test: CDK9/CyclinT in vitro kinase activity, single concentration 1 μM; type: biochemical; conditions: single concentration 1 μM
# T2 construct: purchased BPS Bioscience 79628
# Description: as §1
# OCI-AML5 cells = test: Dose-response proliferative assay in OCI-AML5 (4 days, CellTiterGlo); type: cell-based, H. sapiens; conditions: Homo sapiens, OCI-AML-5, OCI-AML5 cells; read-out: IC50 in AML5
# Procedure, shortened: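 Viability assessed after 4 days of compound exposure at 37 °C, 5% CO2. Compounds tested as 8 dilutions (1:4, 10 μM to 0.5 nM) on 300 OCI-AML5 cells/well grown in αMEM with 10% heat-inactivated FBS and 10 ng/mL GM-CSF.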
# primary AML specimens = test: Dose-response assays in primary AML specimens (6 days, CellTiterGlo); type: cell-based, human; conditions: Homo sapiens, 144 h, 6 days, read-out: IC50
# Description: Freshly thawed primary AML specimens were used for chemical screens. Cryopreserved cells were thawed at 37 °C in IMDM containing 20% FBS and DNase I (100 μg/mL). Cells were resuspended in IMDM supplemented with 15% BIT (BSA, insulin, transferrin; StemCell Technologies), 100 ng/mL SCF, 50 ng/mL FLT3L, 20 ng/mL IL3, 20 ng/mL G-CSF, 10^−4 mol/L b-mercaptoethanol, gentamicin (50 μg/mL), ciprofloxacin (10 μg/mL), SR1 (500 nmol/L) and UM729 (500 nmol/L). Cells were plated in 384-well white plates, 5000 cells per well in 50 μL. Compounds were dissolved in DMSO, diluted in media immediately before use and added to seeded cells at the unique concentration of 1 μM. Control wells received DMSO (0.1%) only. Cell viability was evaluated after 6 days in culture using the CellTiterGlo assay according to the manufacturer’s instruction. Percentage of inhibition for dose response curves was calculated as 100 – (100 × (mean luminescence [compound]/mean luminescence [DMSO])). Dose response curves were generated using nonlinear regression in GraphPad Prism version.
# Dose-response assays in primary AML specimens were performed as in chemical screen (see above) with the exception that compounds were tested in serial dilution (8 dilutions, 1:4, 10 μM down to 0.5 nM). Dose-response assays in OCI-AML5 cell line were conducted similarly with the following modifications: 300 cells per well were seeded in 50 μL of cell line media and cell viability was evaluated after 4 days in culture.
# T2 sequence (P50750 whole entry): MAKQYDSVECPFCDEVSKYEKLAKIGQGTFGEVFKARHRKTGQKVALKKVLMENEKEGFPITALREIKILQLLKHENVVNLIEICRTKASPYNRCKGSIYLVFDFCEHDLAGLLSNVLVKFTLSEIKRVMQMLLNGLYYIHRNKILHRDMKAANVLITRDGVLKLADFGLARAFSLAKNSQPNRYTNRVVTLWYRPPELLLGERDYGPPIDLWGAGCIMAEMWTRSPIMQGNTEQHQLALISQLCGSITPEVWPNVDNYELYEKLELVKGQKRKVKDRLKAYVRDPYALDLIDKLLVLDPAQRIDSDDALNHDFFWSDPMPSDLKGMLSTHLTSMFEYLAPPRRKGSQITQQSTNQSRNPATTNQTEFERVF
# T2 sequence (O60563 whole entry partner): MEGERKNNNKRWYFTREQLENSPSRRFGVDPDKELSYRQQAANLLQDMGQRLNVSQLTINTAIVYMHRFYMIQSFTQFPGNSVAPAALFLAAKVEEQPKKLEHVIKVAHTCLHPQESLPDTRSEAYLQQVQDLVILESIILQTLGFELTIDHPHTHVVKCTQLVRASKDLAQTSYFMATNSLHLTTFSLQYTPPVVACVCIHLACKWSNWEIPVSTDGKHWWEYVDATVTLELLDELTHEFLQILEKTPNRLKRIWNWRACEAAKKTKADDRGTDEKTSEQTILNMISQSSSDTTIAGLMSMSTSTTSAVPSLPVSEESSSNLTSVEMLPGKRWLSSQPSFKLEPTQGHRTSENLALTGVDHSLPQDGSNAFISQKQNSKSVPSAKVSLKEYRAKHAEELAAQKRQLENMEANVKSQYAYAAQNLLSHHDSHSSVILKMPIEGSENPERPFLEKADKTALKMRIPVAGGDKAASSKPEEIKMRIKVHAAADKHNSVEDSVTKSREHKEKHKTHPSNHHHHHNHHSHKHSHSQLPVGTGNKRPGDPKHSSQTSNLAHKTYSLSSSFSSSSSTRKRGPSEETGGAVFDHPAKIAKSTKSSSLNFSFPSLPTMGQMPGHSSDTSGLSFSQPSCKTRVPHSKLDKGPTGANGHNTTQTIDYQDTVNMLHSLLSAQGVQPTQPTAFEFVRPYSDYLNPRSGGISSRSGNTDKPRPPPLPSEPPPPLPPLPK
# T1 sequence (P06493 whole entry): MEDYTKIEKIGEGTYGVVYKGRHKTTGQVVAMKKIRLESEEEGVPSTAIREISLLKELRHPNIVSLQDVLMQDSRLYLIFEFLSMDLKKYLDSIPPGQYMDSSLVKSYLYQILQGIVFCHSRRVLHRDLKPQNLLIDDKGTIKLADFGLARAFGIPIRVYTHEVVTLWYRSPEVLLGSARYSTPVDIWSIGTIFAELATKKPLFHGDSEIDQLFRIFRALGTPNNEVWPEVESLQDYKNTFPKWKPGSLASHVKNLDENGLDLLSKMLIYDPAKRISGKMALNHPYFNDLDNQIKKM
# T1 sequence (P14635 whole entry partner): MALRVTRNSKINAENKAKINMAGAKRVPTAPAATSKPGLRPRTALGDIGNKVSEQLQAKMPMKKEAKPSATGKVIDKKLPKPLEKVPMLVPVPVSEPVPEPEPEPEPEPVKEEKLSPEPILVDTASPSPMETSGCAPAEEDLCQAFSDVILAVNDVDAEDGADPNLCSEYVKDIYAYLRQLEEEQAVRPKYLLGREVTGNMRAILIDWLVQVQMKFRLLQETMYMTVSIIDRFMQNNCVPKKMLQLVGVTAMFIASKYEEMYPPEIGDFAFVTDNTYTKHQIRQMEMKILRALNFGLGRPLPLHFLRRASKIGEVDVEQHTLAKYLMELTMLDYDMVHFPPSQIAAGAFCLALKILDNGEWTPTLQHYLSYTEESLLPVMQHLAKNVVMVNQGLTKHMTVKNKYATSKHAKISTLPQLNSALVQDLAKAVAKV
structure (smiles),measurement,setting,value
"CC(C)(C)c1cnc(CSc2cnc(NC(=O)C3CCNCC3)s2)o1 [SNS-032, N-[5-[[[5-(1,1-dimethylethyl)-2-oxazolyl]methyl]thio]-2-thiazolyl]-4-piperidinecarboxamide]",inhibition at 1 µM,CDK1,77%
same,IC50,"[1]; Homo sapiens, OCI-AML-5, 96 h, OCI-AML5, 4 days, read-out: IC50, sh CDK1",23.3 nM
same,IC50,"[1]; Homo sapiens, OCI-AML-5, 96 h, OCI-AML5, 4 days, read-out: IC50, sh ctrl",37.4 nM
same,IC50,"[1]; Homo sapiens, OCI-AML-5, 96 h, read-out: IC50, sh CDK7",24.5 nM
same,IC50,"[1]; OCI-AML5, 4 days, read-out: IC50, sh CDK1",46.6 nM and 42 nM
same,IC50,"[1]; OCI-AML5, 4 days, read-out: IC50, sh ctrl",47.4 nM and 50 nM
same,Class,[1]; class from shRNA IC50 profile and cyclin K-eGFP degradation,2
same,IC50,"[1]; read-out: IC50, sh CDK7",41 nM
same,MFI of cyclin KeGFP over mCherry,"cyclin KeGFP; OCI-AML5 G7 clone, 3 h, 10 μM, normalized to DMSO (=100)",111.9 and 100.6 and 100.2 and 98.8 and 97.9
same,% degradation cyclin K-eGFP,cyclin KeGFP; cyclin K-eGFP reporter,0%
same,"potency upon CUL4A or CUL4B downregulation (for SNS-032, THZ531 also DDB1 depletion)","[2]; OCI-AML5, 4 days",remained unaffected
same,Ratio shCUL4A/shCTRL,[2]; ratio of IC50 in shCUL4A vs shCTRL OCI-AML5 cells,1.01
same,inhibition at 1 µM,CDK9/CyclinT,63%
same,IC50,OCI-AML5 cells,47 nM
same,IC50,primary AML specimens; primary AML specimen 03H109,97.3 nM
same,IC50,primary AML specimens; primary AML specimen 04H055,85.7 nM
same,IC50,primary AML specimens; primary AML specimen 04H096,118 nM
same,IC50,primary AML specimens; primary AML specimen 04H138,101 nM
same,IC50,primary AML specimens; primary AML specimen 05H113,153 nM
same,IC50,primary AML specimens; primary AML specimen 05H149,547 nM
same,IC50,primary AML specimens; primary AML specimen 05H193,164 nM
same,IC50,primary AML specimens; primary AML specimen 06H088,217 nM
same,IC50,primary AML specimens; primary AML specimen 06H117,134 nM
same,IC50,primary AML specimens; primary AML specimen 06H151,135 nM
same,IC50,primary AML specimens; primary AML specimen 07H003,94.5 nM
same,IC50,primary AML specimens; primary AML specimen 07H131,512 nM
same,IC50,primary AML specimens; primary AML specimen 07H144,165 nM
same,IC50,primary AML specimens; primary AML specimen 07H155,231 nM
same,IC50,primary AML specimens; primary AML specimen 08H018,618 nM
same,IC50,primary AML specimens; primary AML specimen 08H021,90.9 nM
same,IC50,primary AML specimens; primary AML specimen 08H056,79.4 nM
same,IC50,primary AML specimens; primary AML specimen 08H063,146 nM
same,IC50,primary AML specimens; primary AML specimen 08H085,309 nM
same,IC50,primary AML specimens; primary AML specimen 08H108,70.8 nM
same,IC50,primary AML specimens; primary AML specimen 08H118,291 nM
same,IC50,primary AML specimens; primary AML specimen 09H016,244 nM
same,IC50,primary AML specimens; primary AML specimen 09H070,123 nM
same,IC50,primary AML specimens; primary AML specimen 10H014,563 nM
same,IC50,primary AML specimens; primary AML specimen 10H046,306 nM
same,IC50,primary AML specimens; primary AML specimen 10H107,324 nM
same,IC50,primary AML specimens; primary AML specimen 10H127,71.5 nM
same,IC50,primary AML specimens; primary AML specimen 10H161,97.5 nM
same,IC50,primary AML specimens; primary AML specimen 10H174,211 nM
same,IC50,primary AML specimens; primary AML specimen 11H008,161 nM
same,IC50,primary AML specimens; primary AML specimen 11H019,214 nM
same,IC50,primary AML specimens; primary AML specimen 11H170,523 nM
same,IC50,primary AML specimens; primary AML specimen 11H217,74 nM
same,IC50,primary AML specimens; primary AML specimen 11H232,299 nM
same,IC50,primary AML specimens; primary AML specimen 12H033,280 nM
same,IC50,primary AML specimens; primary AML specimen 12H055,183 nM
same,IC50,primary AML specimens; primary AML specimen 12H148,208 nM
same,IC50,primary AML specimens; primary AML specimen 13H053,563 nM
same,IC50,primary AML specimens; primary AML specimen 15H045,256 nM
same,IC50,primary AML specimens; primary AML specimen 17H065,2500 nM
